According to patent publication US4374980A, “3'-Deamino-3'-morpholino carminomycin” (Zaidan Hojin Biseibutsu Kagaku Kenkyu Kai, priority 1981, dated 1983):
Converted amounts (≈) assume the structure as drawn.

Key:
[1] = tested on: Bacillus cereus ATCC 10702; experiment: Minimum inhibitory concentration by broth dilution method; type: cell-based; conditions: ATCC10702
Excerpt: (§1) To illustrate such activity, minimum inhibitory concentrations (as determined by the broth dilution method) of the compound against several bacteria are shown in the Table below.

[2] = tested on: Bacillus subtilis NRRL B-558; experiment: as above; type: cell-based; conditions: NRRLB558
Excerpt: as §1

[3] = tested on: Corynebacterium bovis 1810; experiment: as above; type: cell-based
Excerpt: as §1

[4] = tested on: Micrococcus flavus FDA 16; experiment: as above; type: cell-based; conditions: FDA16
Excerpt: as §1

[5] = tested on: Pseudomonas aeruginosa A3; experiment: as above; type: cell-based
Excerpt: as §1

Sarcina lutea PCI 1001 = experiment: as above; type: cell-based; conditions: Micrococcus luteus, PCI1001
Excerpt: as §1

Staph. aureus FDA 209P = experiment: as above; type: cell-based; conditions: Staphylococcus aureus, FDA209P
Excerpt: as §1

Staph. aureus Smith = experiment: as above; type: cell-based; conditions: Staphylococcus aureus
Excerpt: as §1

leukemic cells L1210 [6] = experiment: Inhibition of growth of cultivated leukemic cells L1210 of mice; type: cell-based; conditions: for IC50: Mus musculus, growth, RPMI 1640, 20% calf serum, 37° C.
Procedure: (§2) (A) Activity of inhibiting growth, DNA synthesis and RNA synthesis of cultivated leukemic cells L1210 of mice.
For example, L1210 cells were inoculated in a concentration of 5×10^4 /ml in an RPMI 1640 culture medium containing 20% calf serum (Rosewell Memorial Park Institute 1640), and simultaneously 3'-deamino-3'-morpholino-carminomycin was added in various concentrations. Thus, the cells were cultivated in an incubator containing carbon dioxide gas at 37° C. The 50% growth inhibitory concentration with respect to a control group was determined.

leukemic cells L1210 [7] = experiment: Inhibition of DNA synthesis (14C-thymidine incorporation) in cultivated leukemic cells L1210 of mice; type: cell-based; conditions: Mus musculus, L1210, 1 h, 60 minutes, 37° C., RPMI 1640, 10% calf serum
Procedure: as §2
(§3) Separately, the above cultivated cells L1210 were suspended in a concentration of 1×10^5 /ml in an RPMI 1640 medium containing 10% of calf serum, and cultivated for 1 to 2 hours in an incubator containing carbon dioxide gas at 37° C. Then, 3'-deamino-3'-morpholino-carminomycin was added in various concentrations,and 15 minutes later, ^14 C-uridine (0.05 μCi/ml) and ^14 C-thymidine (0.05 μCi/ml) were added. Thus, the cells were cultivated at 37° C. for 60 minutes. A 10% aqueous solution of trichloroacetic acid was added to the reaction liquor to stop the reaction and simultaneously precipitate an acid-insoluble matter. The acid-insoluble matter was washed three times with a 10-5% aqueous solution of trichloroacetic acid, and then dissolved in formic acid. The radioactivity of the acid-insoluble matter was measured. From the ratio of incorporated radiation to that of a control group, the concentrations which inhibited radiation by 50% were measured.

leukemic cells L1210 [8] = experiment: Inhibition of RNA synthesis (14C-uridine incorporation) in cultivated leukemic cells L1210 of mice; type: cell-based; conditions: Mus musculus, L1210, 1 h, 60 minutes, 37° C., RPMI 1640, 10% calf serum
Procedure: as §2, §3

leukemic cells L1210 [9] = experiment: Antitumor activity on CDF1 mouse leukemia induced by leukemic cells L1210; type: in vivo, CDF1 mice; conditions: 10 consecutive days
Procedure: (B) Antitumor activitiy on CDF1 mouse leukemia induced by leukemic cells L1210 of mice.
Leukemic cells L1210 of mice were intraperitoneally transplanted in an amount of 1×10^5 per mouse in CDF1 mice. Starting 24 hours after the transplantation, 3'-deamino-3'-morpholino-carminomycin was intraperitoneally or orally administered to the mice for 10 consecutive days. The survival rate (T/C, %) was calculated in comparison with a control group (to which physiological saline was administered).

[10] = Acute toxicity by oral administration on CDF1 mouse; conditions: in vivo
Excerpt: (C) Acute toxicity by oral administration on CDF1 mouse.

P-388 leukemia = conditions: vs P-388 leukemia in mice; reported in U.S. Pat. No. 4,301,277; cited from earlier work

CC(=O)[C@]1(O)Cc2c(O)c3c(c(O)c2[C@@H](O[C@H]2C[C@H](N4CCOCC4)[C@H](O)[C@H](C)O2)C1)C(=O)c1c(O)cccc1C3=O [3'-Deamino-3'-morpholino-carminomycin]
MIC [1]: 0.78 µg/mL (≈ 1.34 µM) | MIC [2]: 1.56 µg/mL (≈ 2.67 µM) | MIC [3]: 0.39 µg/mL (≈ 0.668 µM) | MIC [4]: 1.56 µg/mL (≈ 2.67 µM) | MIC [5]: > 100 µg/mL | MIC (Sarcina lutea PCI 1001): 0.78 µg/mL (≈ 1.34 µM) | MIC (Staph. aureus FDA 209P): 0.78 µg/mL (≈ 1.34 µM) | MIC (Staph. aureus Smith): 6.25 µg/mL (≈ 10.7 µM) | IC50 (leukemic cells L1210 [6]; L1210, 24 h, 1 day, read-out: IC50 growth, 1 day after): 0.01 µg/mL (≈ 0.0171 µM) | IC50 (leukemic cells L1210 [6]; L1210, 48 h, 2 days, read-out: IC50 growth, 2 days after): 0.0009 µg/mL (≈ 0.00154 µM) | inhibition of growth and nucleic acid synthesis (in words) (leukemic cells L1210 [6]; cultivated L1210 cells of mice): markedly inhibit the growth and nucleic acid synthesis | IC50 (leukemic cells L1210 [7]): 0.09 µg/mL (≈ 0.154 µM) | IC50 (leukemic cells L1210 [8]): 0.013 µg/mL (≈ 0.0223 µM) | T/C % of the survival period (leukemic cells L1210 [9]; i.p., 0.39 μg/mouse/day): 94% | T/C % of the survival period (leukemic cells L1210 [9]; i.p., 0.78 μg/mouse/day): 122% | T/C % of the survival period (leukemic cells L1210 [9]; i.p., 1.56 μg/mouse/day): 94% | T/C % of the survival period (leukemic cells L1210 [9]; i.p., 3.125 μg/mouse/day): 122% | T/C % of the survival period (leukemic cells L1210 [9]; i.p., 6.25 μg/mouse/day): 122% | T/C % of the survival period (leukemic cells L1210 [9]; i.p., 12.5 μg/mouse/day): 194% | toxicity (footnote *) (leukemic cells L1210 [9]; i.p., 12.5 μg/mouse/day): Toxic | T/C % of the survival period (leukemic cells L1210 [9]; p.o., 0.39 μg/mouse/day): 100% | T/C % of the survival period (leukemic cells L1210 [9]; p.o., 0.78 μg/mouse/day): 111% | T/C % of the survival period (leukemic cells L1210 [9]; p.o., 1.56 μg/mouse/day): 106% | T/C % of the survival period (leukemic cells L1210 [9]; p.o., 3.125 μg/mouse/day): 133% | T/C % of the survival period (leukemic cells L1210 [9]; p.o., 6.25 μg/mouse/day): 167% | T/C % of the survival period (leukemic cells L1210 [9]; p.o., 12.5 μg/mouse/day): 206% | LD50 [10]: 1.56 mg/kg

COc1cccc2c1C(=O)c1c(O)c3c(c(O)c1C2=O)C[C@@](O)(C(=O)CO)C[C@@H]3O[C@H]1C[C@H](N2CCOCC2)[C@H](O)[C@H](C)O1 [3'-deamino-3'-morpholino-adriamycin, 3'-Deamino-3'-morpholino-adriamycin]
antitumor potency relative to adriamycin and daunomycin starting materials (P-388 leukemia): significantly greater antitumor potency

COc1cccc2c1C(=O)c1c(O)c3c(c(O)c1C2=O)C[C@@](O)(C(C)=O)C[C@@H]3O[C@H]1C[C@H](N2CCOCC2)[C@H](O)[C@H](C)O1 [3'-deamino-3'-morpholino-daunomycin, 3'-Deamino-3'-morpholinodaunomycin]
antitumor potency relative to adriamycin and daunomycin starting materials (P-388 leukemia): significantly greater antitumor potency
